Reference: patent US9339034B2, “Use of thaxtomin for selective control of rice and aquatic based weeds” (MARRONE BIO INNOVATIONS, INC., priority 2009, dated 2016)

Legend:
Leptochloa sp = experiment: Pot study, spray of pure thaxtomin A solutions, % control; format: in vivo, sprangletop: Leptochloa uninervia
Procedure: (§1) A pot study was conducted to test the phytotoxicity of thaxtomin A on broadleaved, sedge and grass weeds. Seeds of two most common broadleaf (redstem; Ammannia spp. and common waterplantain; Alisma plantago-aquatica), sedge (smallflower umbrella sedge; Cyperus diiformis) and grass (sprangletop: Leptochloa uninervia) weeds each were planted in a plastic pots filled with heavy clay soil. The less than 1-inch tall plants grown under growth lights (12-h light/12-h dark) at 28° C. were sprayed with pure thaxtomin A solutions containing 0.05, 0.1, 0.2, and 0.4 mg thaxtomin A per mL of solvent (4% ethanol and 0.2% non-ionic surfactant). A solution of 4% ethanol+0.2% non-ionic surfactant without thaxtomin A was used as a control treatment. Same treatments were applied to three-inch tall rice plants grown submerged under growth lights at 28° C. […] All treatments were applied in three replicates. Treated plants were kept at 28° C. under growth lights and observed at three time points—5, 12 and 21 days after treatment—for visual symptoms of phytotoxicity and % control.

rice (S102, M104, M206) = experiment: Pot study, phytotoxicity on rice plants; format: in vivo; details: three rice cultivars (S102, M104, M206); 0.05-0.4 mg/mL; each evaluation time point (5, 12, 21 days)
Procedure: as §1

WCN = experiment: Greenhouse pot study, weed control; format: in vivo, Eleocharis dulcis
From the text: (§2) The activity on susceptible and resistant biotypes of Scirpus mucronatus was somewhat weaker (70 to 75%) than that observed for other sedge weeds in this study.

CYI = experiment: Greenhouse pot study, weed control; format: in vivo, Cyperus iria
Ammania sp = experiment: Pot study, spray of pure thaxtomin A solutions, % control; format: in vivo, redstem; Ammannia spp.
Procedure: as §1

Cyperus sp = experiment: as above; format: in vivo, smallflower umbrella sedge; Cyperus diiformis
Procedure: as §1

WPL = experiment: Greenhouse pot study, weed control; format: in vivo, Alisma-plamago aquatica
From the text: (§3) Moderate suppression (60%) was noted on Echinochloa colonum at 500 g a.i. per hectare.

[1] = tested on: TPL (transplanted 'M202' Japonica-type rice); experiment: Greenhouse pot study, effect on crop growth, transplanted rice; format: in vivo; details: for effect on crop growth (rice): TPL
AMM = experiment: Greenhouse pot study, weed control; format: in vivo, Ammania spp.
From the text: as §3

Alisma plantago-aquatica = experiment: Pot study, spray of pure thaxtomin A solutions, % control; format: in vivo, common waterplantain; Alisma plantago-aquatica; details: for % control: Alisma plantago-aquatica
Procedure: as §1

CPD = experiment: Greenhouse pot study, weed control; format: in vivo, Cyperus difformis
From the text: as §3

[2] = tested on: mono and dicotyledonous seedlings; details: cited from earlier work
DSR (direct-seeded rice) = experiment: Greenhouse pot study, effect on crop growth, direct-seeded rice; format: in vivo
EO2 = experiment: Greenhouse pot study, weed control; format: in vivo, Echinochloa spp.
From the text: as §3

transplanted rice = experiment: First study, crop safety; format: in vivo; details: all rates tested (64 to 1000 g a.i. per hectare)
direct-seeded rice = experiment: First study, crop safety; format: in vivo; details: rates up to 750 g a.i. per hectare
SCM = experiment: Greenhouse pot study, weed control; format: in vivo, Scirpus mucronatus
From the text: as §2

[3] = 5 DAYS, 0.05 mg/mL in 4% ethanol
[4] = 5 DAYS, 0.1 mg/mL in 4% ethanol
[5] = 5 DAYS, 0.2 mg/mL in 4% ethanol
[6] = 5 DAYS, 0.4 mg/mL in 4% ethanol
[7] = 12 DAYS, 0.05 mg/mL in 4% ethanol
[8] = 12 DAYS, 0.1 mg/mL in 4% ethanol
[9] = 12 DAYS, 0.2 mg/mL in 4% ethanol
[10] = 12 DAYS, 0.4 mg/mL in 4% ethanol
[11] = 21 DAYS, 0.05 mg/mL in 4% ethanol
[12] = 21 DAYS, 0.1 mg/mL in 4% ethanol
[13] = 21 DAYS, 0.2 mg/mL in 4% ethanol

## CN1C(=O)[C@](O)(Cc2cccc(O)c2)N(C)C(=O)[C@@H]1Cc1c[nH]c2cccc([N+](=O)[O-])c12 [thaxtomin A]
Leptochloa sp; [3]
  % control: 0%
Leptochloa sp; [4]
  % control: 0%
Leptochloa sp; [5]
  % control: 0%
Leptochloa sp; [6]
  % control: 0%
Leptochloa sp; [7]
  % control: 0a %
Leptochloa sp; [8]
  % control: 2a %
Leptochloa sp; [9]
  % control: 10b %
Leptochloa sp; [10]
  % control: 10b %
Leptochloa sp; [11]
  % control: 0a %
Leptochloa sp; [12]
  % control: 3a %
Leptochloa sp; [13]
  % control: 12a %
Leptochloa sp; 21 DAYS, 0.4 mg/mL in 4% ethanol, listed as Thaxtomin
  % control: 17a %
Leptochloa sp; 21 DAYS, 0.4 mg/mL in 4% ethanol, listed as Thaxtomin A
  % control: 17%
Rice (S102, M104, M206)
  phytotoxicity in rice cultivars: no phytotoxicity
WCN; 125 g/ha
  % control: 35%
WCN; 250 g/ha
  % control: 85%
WCN; 500 g/ha
  % control: 85%
WCN; 1000 g/ha
  % control: 95%
CYI; 64 g/ha
  % control: 45%
CYI; 125 g/ha
  % control: 45%
CYI; 250 g/ha
  % control: 95%
CYI; 500 g/ha
  % control: 100%
CYI; 1000 g/ha
  % control: 100%
Ammania sp; Ammania sp, 5 DAYS, 0.05 mg/mL in 4% ethanol
  % control: 0%
Ammania sp; Ammania sp, 5 DAYS, 0.1 mg/mL in 4% ethanol
  % control: 0%
Ammania sp; Ammania sp, 5 DAYS, 0.2 mg/mL in 4% ethanol
  % control: 0%
Ammania sp; Ammania sp, 5 DAYS, 0.4 mg/mL in 4% ethanol
  % control: 0%
Ammania sp; Ammania sp, 12 DAYS, 0.05 mg/mL in 4% ethanol
  % control: 0a %
Ammania sp; Ammania sp, 12 DAYS, 0.1 mg/mL in 4% ethanol
  % control: 0a %
Ammania sp; Ammania sp, 12 DAYS, 0.2 mg/mL in 4% ethanol
  % control: 0a %
Ammania sp; Ammania sp, 12 DAYS, 0.4 mg/mL in 4% ethanol
  % control: 3b %
Ammania sp; Ammania sp, 21 DAYS, 0.05 mg/mL in 4% ethanol
  % control: 63b %
Ammania sp; Ammania sp, 21 DAYS, 0.1 mg/mL in 4% ethanol
  % control: 53b %
Ammania sp; Ammania sp, 21 DAYS, 0.2 mg/mL in 4% ethanol
  % control: 70b %
Ammania sp; Ammania sp, 21 DAYS, 0.4 mg/mL in 4% ethanol
  % control: 75b %
Ammania sp; red stem (Ammania sp.), highest concentration (0.4 mg/mL)
  % control: 75-80%
Cyperus sp; Cyperus sp, 5 DAYS, 0.05 mg/mL in 4% ethanol
  % control: 5a %
Cyperus sp; Cyperus sp, 5 DAYS, 0.1 mg/mL in 4% ethanol
  % control: 12a %
Cyperus sp; Cyperus sp, 5 DAYS, 0.2 mg/mL in 4% ethanol
  % control: 16a %
Cyperus sp; Cyperus sp, 5 DAYS, 0.4 mg/mL in 4% ethanol
  % control: 25a %
Cyperus sp; Cyperus sp, 12 DAYS, 0.05 mg/mL in 4% ethanol
  % control: 15a %
Cyperus sp; Cyperus sp, 12 DAYS, 0.1 mg/mL in 4% ethanol
  % control: 75b %
Cyperus sp; Cyperus sp, 12 DAYS, 0.2 mg/mL in 4% ethanol
  % control: 77b %
Cyperus sp; Cyperus sp, 12 DAYS, 0.4 mg/mL in 4% ethanol
  % control: 73b %
Cyperus sp; Cyperus sp, 21 DAYS, 0.05 mg/mL in 4% ethanol
  % control: 53b %
Cyperus sp; Cyperus sp, 21 DAYS, 0.1 mg/mL in 4% ethanol
  % control: 90c %
Cyperus sp; Cyperus sp, 21 DAYS, 0.2 mg/mL in 4% ethanol
  % control: 88c %
Cyperus sp; Cyperus sp, 21 DAYS, 0.4 mg/mL in 4% ethanol
  % control: 83c %
Cyperus sp; sedge (Cyperus difformis), highest concentration (0.4 mg/mL)
  % control: 75-80%
WPL; 64 g/ha
  % control: 0%
WPL; 125 g/ha
  % control: 70%
WPL; 250 g/ha
  % control: 95%
WPL; 500 g/ha
  % control: 100%
WPL; 1000 g/ha
  % control: 100%
[1]; 1000 g a.i.
  selectivity on transplanted rice: excellent selectivity
[1]; 64 g/ha
  effect on crop growth (rice): 0%
[1]; 125 g/ha
  effect on crop growth (rice): 0%
[1]; 250 g/ha
  effect on crop growth (rice): 0%
[1]; 500 g/ha
  effect on crop growth (rice): 0%
[1]; 1000 g/ha
  effect on crop growth (rice): 10%
[1]; transplanted 'M202' Japonica-type rice, 500 g a.i. per hectare
  rice selectivity: excellent rice selectivity
AMM; 64 g/ha
  % control: 0%
AMM; 125 g/ha
  % control: 30%
AMM; 250 g/ha
  % control: 90%
AMM; 500 g/ha
  % control: 100%
AMM; 1000 g/ha
  % control: 100%
Alisma plantago-aquatica; 0.2 mg/ml
  control of common water plantain: complete control
Alisma plantago-aquatica; [3]
  % control: 8a %
Alisma plantago-aquatica; [4]
  % control: 28ab %
Alisma plantago-aquatica; [5]
  % control: 40b %
Alisma plantago-aquatica; [6]
  % control: 62b %
Alisma plantago-aquatica; [7]
  % control: 40b %
Alisma plantago-aquatica; [8]
  % control: 43b %
Alisma plantago-aquatica; [9]
  % control: 87c %
Alisma plantago-aquatica; [10]
  % control: 87c %
Alisma plantago-aquatica; [11]
  % control: 83b %
Alisma plantago-aquatica; [12]
  % control: 70b %
Alisma plantago-aquatica; [13]
  % control: 100c %
Alisma plantago-aquatica; 21 DAYS, 0.4 mg/mL in 4% ethanol
  % control: 98c %
CPD; 64 g/ha
  % control: 0%
CPD; 125 g/ha
  % control: 85%
CPD; 250 g/ha
  % control: 100%
CPD; 500 g/ha
  % control: 100%
CPD; 1000 g/ha
  % control: 100%
[2]
  concentration causing cell swelling, necrosis and growth inhibition: less than 1 uM
DSR (direct-seeded rice); 64 g/ha
  effect on crop growth (rice): 10%
DSR (direct-seeded rice); 125 g/ha
  effect on crop growth (rice): 10%
DSR (direct-seeded rice); 250 g/ha
  effect on crop growth (rice): 10%
DSR (direct-seeded rice); 500 g/ha
  effect on crop growth (rice): 15%
DSR (direct-seeded rice); 1000 g/ha
  effect on crop growth (rice): 40%
EO2; EO2, 64 g/ha
  % control: 0%
EO2; EO2, 125 g/ha
  % control: 0%
EO2; EO2, 250 g/ha
  % control: 20%
EO2; EO2, 500 g/ha
  % control: 20%
EO2; EO2, 1000 g/ha
  % control: 30%
Transplanted rice
  safety to transplanted rice: complete safety
direct-seeded rice
  growth reductions to direct-seeded rice: only slight growth reductions
SCM; 64 g/ha
  % control: 0%
SCM; 125 g/ha
  % control: 30%
SCM; 250 g/ha
  % control: 30%
SCM; 500 g/ha
  % control: 70%
SCM; 1000 g/ha
  % control: 95%
